From paper PMC8214221, “Sequence determinants in the cathelicidin LL-37 that promote inflammation via presentation of RNA to scavenger receptors” (The Journal of Biological Chemistry, 2021)
Residues, ends and D or L forms follow the SMILES beside them.

Tested on: normal human epidermal keratinocytes (NHEKs)
Assay: LDH release cytotoxicity assay in keratinocytes
Format: cell-based
Details: minimal concentration giving 50% LDH release by NHEKs
Source text: Since LL-34 was the minimal truncation mutant of LL-37 that retained both antimicrobial and immune modulatory activity, we prepared a series of synthetic peptides with sequential substitutions of alanine at each amino acid position of the LL-34 parent peptide (Table 1). We compared the minimum inhibitory concentration (MIC) for the LL-34 parent peptide and the alanine mutants (LL-34 peptides—L1A and R34A) against methicillin-resistant Staphylococcus aureus strain USA300 (Fig. 1A). LL-34 peptides were incubated at concentrations of 0 to 100 μM with bacteria. The minimal concentration at which no growth was observed was noted after 18 h of incubation. […] Because of these changes in the MIC against S. aureus between the mutants, we investigated the effective toxicity profile of the peptides in normal human epidermal keratinocytes (NHEKs) by lactate dehydrogenase (LDH) release assay (Table 1). […] Most other peptides were cytotoxic at a minimal concentration of 10 μM, whereas LL-34—K15A was toxic at a concentration of 2.5 μM.
LDH cytotoxicity assay was performed according to manufacturer's instructions (Thermo Fisher Scientific). Culture supernatants from keratinocytes were used fresh for LDH assay after experimental treatments.

| SMILES | Minimal cytotoxic concentration in NHEK (LD50) |
| --- | --- |
| CC[C@H](C)[C@H](NC(=O)[C@H](CCCCN)NC(=O)[C@H](CCC(=O)O)NC(=O)[C@H](CCCCN)NC(=O)[C@H](CO)NC(=O)[C@H](CCCCN)NC(=O)[C@H](CCCNC(=N)N)NC(=O)[C@H](Cc1ccccc1)NC(=O)[C@H](Cc1ccccc1)NC(=O)[C@H](CC(=O)O)NC(=O)CNC(=O)[C@H](CC(C)C)NC(=O)[C@@H](N)CC(C)C)C(=O)NCC(=O)N[C@@H](CCCCN)C(=O)N[C@@H](C)C(=O)N[C@@H](Cc1ccccc1)C(=O)N[C@@H](CCCCN)C(=O)N[C@@H](CCCNC(=N)N)C(=O)N[C@H](C(=O)N[C@H](C(=O)N[C@@H](CCC(N)=O)C(=O)N[C@@H](CCCNC(=N)N)C(=O)N[C@H](C(=O)N[C@@H](CCCCN)C(=O)N[C@@H](CC(=O)O)C(=O)N[C@@H](Cc1ccccc1)C(=O)N[C@@H](CC(C)C)C(=O)N[C@@H](CCCNC(=N)N)C(=O)N[C@@H](CC(N)=O)C(=O)N[C@@H](CC(C)C)C(=O)N[C@H](C(=O)N1CCC[C@H]1C(=O)N[C@@H](CCCNC(=N)N)C(=O)O)C(C)C)[C@@H](C)CC)C(C)C)[C@@H](C)CC [LL-34—E16A] (H-LLGDFFRKSKEKIGKAFKRIVQRIKDFLRNLVPR-OH; N-terminus and C-terminus assumed) | 5 µM |
| CC[C@H](C)[C@H](NC(=O)[C@H](CCCCN)NC(=O)[C@H](CCC(=O)O)NC(=O)[C@H](CCCCN)NC(=O)[C@H](CO)NC(=O)[C@H](CCCCN)NC(=O)[C@H](CCCNC(=N)N)NC(=O)[C@H](Cc1ccccc1)NC(=O)[C@H](Cc1ccccc1)NC(=O)[C@H](CC(=O)O)NC(=O)[C@H](C)NC(=O)[C@H](CC(C)C)NC(=O)[C@@H](N)CC(C)C)C(=O)NCC(=O)N[C@@H](CCCCN)C(=O)N[C@@H](CCC(=O)O)C(=O)N[C@@H](Cc1ccccc1)C(=O)N[C@@H](CCCCN)C(=O)N[C@@H](CCCNC(=N)N)C(=O)N[C@H](C(=O)N[C@H](C(=O)N[C@@H](CCC(N)=O)C(=O)N[C@@H](CCCNC(=N)N)C(=O)N[C@H](C(=O)N[C@@H](CCCCN)C(=O)N[C@@H](CC(=O)O)C(=O)N[C@@H](Cc1ccccc1)C(=O)N[C@@H](CC(C)C)C(=O)N[C@@H](CCCNC(=N)N)C(=O)N[C@@H](CC(N)=O)C(=O)N[C@@H](CC(C)C)C(=O)N[C@H](C(=O)N1CCC[C@H]1C(=O)N[C@@H](CCCNC(=N)N)C(=O)O)C(C)C)[C@@H](C)CC)C(C)C)[C@@H](C)CC [LL-34—G3A] (H-LLADFFRKSKEKIGKEFKRIVQRIKDFLRNLVPR-OH; N-terminus and C-terminus assumed) | 20 µM |
| CC[C@H](C)[C@H](NC(=O)[C@H](CCCCN)NC(=O)[C@H](CCC(=O)O)NC(=O)[C@H](CCCCN)NC(=O)[C@H](CO)NC(=O)[C@H](CCCCN)NC(=O)[C@H](CCCNC(=N)N)NC(=O)[C@H](Cc1ccccc1)NC(=O)[C@H](Cc1ccccc1)NC(=O)[C@H](CC(=O)O)NC(=O)CNC(=O)[C@H](CC(C)C)NC(=O)[C@@H](N)CC(C)C)C(=O)N[C@@H](C)C(=O)N[C@@H](CCCCN)C(=O)N[C@@H](CCC(=O)O)C(=O)N[C@@H](Cc1ccccc1)C(=O)N[C@@H](CCCCN)C(=O)N[C@@H](CCCNC(=N)N)C(=O)N[C@H](C(=O)N[C@H](C(=O)N[C@@H](CCC(N)=O)C(=O)N[C@@H](CCCNC(=N)N)C(=O)N[C@H](C(=O)N[C@@H](CCCCN)C(=O)N[C@@H](CC(=O)O)C(=O)N[C@@H](Cc1ccccc1)C(=O)N[C@@H](CC(C)C)C(=O)N[C@@H](CCCNC(=N)N)C(=O)N[C@@H](CC(N)=O)C(=O)N[C@@H](CC(C)C)C(=O)N[C@H](C(=O)N1CCC[C@H]1C(=O)N[C@@H](CCCNC(=N)N)C(=O)O)C(C)C)[C@@H](C)CC)C(C)C)[C@@H](C)CC [LL-34—G14A] (H-LLGDFFRKSKEKIAKEFKRIVQRIKDFLRNLVPR-OH; N-terminus and C-terminus assumed) | 5 µM |
| CC[C@H](C)[C@H](NC(=O)[C@H](CCCCN)NC(=O)[C@H](CCC(=O)O)NC(=O)[C@H](CCCCN)NC(=O)[C@H](CO)NC(=O)[C@H](C)NC(=O)[C@H](CCCNC(=N)N)NC(=O)[C@H](Cc1ccccc1)NC(=O)[C@H](Cc1ccccc1)NC(=O)[C@H](CC(=O)O)NC(=O)CNC(=O)[C@H](CC(C)C)NC(=O)[C@@H](N)CC(C)C)C(=O)NCC(=O)N[C@@H](CCCCN)C(=O)N[C@@H](CCC(=O)O)C(=O)N[C@@H](Cc1ccccc1)C(=O)N[C@@H](CCCCN)C(=O)N[C@@H](CCCNC(=N)N)C(=O)N[C@H](C(=O)N[C@H](C(=O)N[C@@H](CCC(N)=O)C(=O)N[C@@H](CCCNC(=N)N)C(=O)N[C@H](C(=O)N[C@@H](CCCCN)C(=O)N[C@@H](CC(=O)O)C(=O)N[C@@H](Cc1ccccc1)C(=O)N[C@@H](CC(C)C)C(=O)N[C@@H](CCCNC(=N)N)C(=O)N[C@@H](CC(N)=O)C(=O)N[C@@H](CC(C)C)C(=O)N[C@H](C(=O)N1CCC[C@H]1C(=O)N[C@@H](CCCNC(=N)N)C(=O)O)C(C)C)[C@@H](C)CC)C(C)C)[C@@H](C)CC [LL-34—K8A] (H-LLGDFFRASKEKIGKEFKRIVQRIKDFLRNLVPR-OH; N-terminus and C-terminus assumed) | 5 µM |
| CC[C@H](C)[C@H](NC(=O)[C@H](CCCCN)NC(=O)[C@H](CCC(=O)O)NC(=O)[C@H](C)NC(=O)[C@H](CO)NC(=O)[C@H](CCCCN)NC(=O)[C@H](CCCNC(=N)N)NC(=O)[C@H](Cc1ccccc1)NC(=O)[C@H](Cc1ccccc1)NC(=O)[C@H](CC(=O)O)NC(=O)CNC(=O)[C@H](CC(C)C)NC(=O)[C@@H](N)CC(C)C)C(=O)NCC(=O)N[C@@H](CCCCN)C(=O)N[C@@H](CCC(=O)O)C(=O)N[C@@H](Cc1ccccc1)C(=O)N[C@@H](CCCCN)C(=O)N[C@@H](CCCNC(=N)N)C(=O)N[C@H](C(=O)N[C@H](C(=O)N[C@@H](CCC(N)=O)C(=O)N[C@@H](CCCNC(=N)N)C(=O)N[C@H](C(=O)N[C@@H](CCCCN)C(=O)N[C@@H](CC(=O)O)C(=O)N[C@@H](Cc1ccccc1)C(=O)N[C@@H](CC(C)C)C(=O)N[C@@H](CCCNC(=N)N)C(=O)N[C@@H](CC(N)=O)C(=O)N[C@@H](CC(C)C)C(=O)N[C@H](C(=O)N1CCC[C@H]1C(=O)N[C@@H](CCCNC(=N)N)C(=O)O)C(C)C)[C@@H](C)CC)C(C)C)[C@@H](C)CC [LL-34—K10A] (H-LLGDFFRKSAEKIGKEFKRIVQRIKDFLRNLVPR-OH; N-terminus and C-terminus assumed) | 5 µM |
| CC[C@H](C)[C@H](NC(=O)[C@H](CCCCN)NC(=O)[C@H](CCC(=O)O)NC(=O)[C@H](CCCCN)NC(=O)[C@H](CO)NC(=O)[C@H](CCCCN)NC(=O)[C@H](CCCNC(=N)N)NC(=O)[C@H](Cc1ccccc1)NC(=O)[C@H](Cc1ccccc1)NC(=O)[C@H](CC(=O)O)NC(=O)CNC(=O)[C@H](CC(C)C)NC(=O)[C@@H](N)CC(C)C)C(=O)NCC(=O)N[C@@H](C)C(=O)N[C@@H](CCC(=O)O)C(=O)N[C@@H](Cc1ccccc1)C(=O)N[C@@H](CCCCN)C(=O)N[C@@H](CCCNC(=N)N)C(=O)N[C@H](C(=O)N[C@H](C(=O)N[C@@H](CCC(N)=O)C(=O)N[C@@H](CCCNC(=N)N)C(=O)N[C@H](C(=O)N[C@@H](CCCCN)C(=O)N[C@@H](CC(=O)O)C(=O)N[C@@H](Cc1ccccc1)C(=O)N[C@@H](CC(C)C)C(=O)N[C@@H](CCCNC(=N)N)C(=O)N[C@@H](CC(N)=O)C(=O)N[C@@H](CC(C)C)C(=O)N[C@H](C(=O)N1CCC[C@H]1C(=O)N[C@@H](CCCNC(=N)N)C(=O)O)C(C)C)[C@@H](C)CC)C(C)C)[C@@H](C)CC [LL-34—K15A] (H-LLGDFFRKSKEKIGAEFKRIVQRIKDFLRNLVPR-OH; N-terminus and C-terminus assumed) | 2.5 µM |
| CC[C@H](C)[C@H](NC(=O)[C@H](CCCCN)NC(=O)[C@H](CCC(=O)O)NC(=O)[C@H](CCCCN)NC(=O)[C@H](CO)NC(=O)[C@H](CCCCN)NC(=O)[C@H](CCCNC(=N)N)NC(=O)[C@H](Cc1ccccc1)NC(=O)[C@H](Cc1ccccc1)NC(=O)[C@H](CC(=O)O)NC(=O)CNC(=O)[C@H](CC(C)C)NC(=O)[C@@H](N)CC(C)C)C(=O)NCC(=O)N[C@@H](CCCCN)C(=O)N[C@@H](CCC(=O)O)C(=O)N[C@@H](Cc1ccccc1)C(=O)N[C@@H](C)C(=O)N[C@@H](CCCNC(=N)N)C(=O)N[C@H](C(=O)N[C@H](C(=O)N[C@@H](CCC(N)=O)C(=O)N[C@@H](CCCNC(=N)N)C(=O)N[C@H](C(=O)N[C@@H](CCCCN)C(=O)N[C@@H](CC(=O)O)C(=O)N[C@@H](Cc1ccccc1)C(=O)N[C@@H](CC(C)C)C(=O)N[C@@H](CCCNC(=N)N)C(=O)N[C@@H](CC(N)=O)C(=O)N[C@@H](CC(C)C)C(=O)N[C@H](C(=O)N1CCC[C@H]1C(=O)N[C@@H](CCCNC(=N)N)C(=O)O)C(C)C)[C@@H](C)CC)C(C)C)[C@@H](C)CC [LL-34—K18A] (H-LLGDFFRKSKEKIGKEFARIVQRIKDFLRNLVPR-OH; N-terminus and C-terminus assumed) | 10 µM |
